Source: the kinase profiling compilation of Christmann-Franck et al. (2016)

Columns and labels:
Assay in all cases: KINOMEscan competition binding
Details in all cases: compound 10.0 µM
ACVR2B (human) = ACVR2B (human) (UniProt Q13705)
[1] = target: JAK2 JH1 catalytic (human) (UniProt O60674)
MLTK (human) = MLTK (human) (UniProt Q9NYL2)
IGF1R (human) = IGF1R (human) (UniProt P08069)
RAF1 (human) = RAF1 (human) (UniProt P04049)
STK24 (human) = STK24 (human) (UniProt Q9Y6E0)
STK4 (human) = STK4 (human) (UniProt Q13043)
PIK3C2B (human) = PIK3C2B (human) (UniProt O00750)
RIPK2 (human) = RIPK2 (human) (UniProt O43353)
MAP4K1 (human) = MAP4K1 (human) (UniProt Q92918)
PAK4 (human) = PAK4 (human) (UniProt O96013)
RPS6KA4 KD1 (human) = RPS6KA4 KD1 (human) (UniProt O75676)
PIK3CB (human) = PIK3CB (human) (UniProt P42338)
MARK3 (human) = MARK3 (human) (UniProt P27448)
MAP2K6 (human) = MAP2K6 (human) (UniProt P52564)
PLK4 (human) = PLK4 (human) (UniProt O00444)
PAK6 (human) = PAK6 (human) (UniProt Q9NQU5)
FER (human) = FER (human) (UniProt P16591)
STK17B (human) = STK17B (human) (UniProt O94768)
FGFR1 (human) = FGFR1 (human) (UniProt P11362)
[2] = system: KIT (human), P10721 [D816V]
TYRO3 (human) = TYRO3 (human) (UniProt Q06418)
EPHA6 (human) = EPHA6 (human) (UniProt Q9UF33)
TXK (human) = TXK (human) (UniProt P42681)
RIOK2 (human) = RIOK2 (human) (UniProt Q9BVS4)
EPHA4 (human) = EPHA4 (human) (UniProt P54764)
DMPK (human) = DMPK (human) (UniProt Q09013)
ACVR1 (human) = ACVR1 (human) (UniProt Q04771)
NEK7 (human) = NEK7 (human) (UniProt Q8TDX7)
CDK8 (human) = CDK8 (human) (UniProt P49336)
DCLK1 (human) = DCLK1 (human) (UniProt O15075)
MYLK3 (human) = MYLK3 (human) (UniProt Q32MK0)

Chain of MAP4K1 (human) (Q92918 whole entry, looked up): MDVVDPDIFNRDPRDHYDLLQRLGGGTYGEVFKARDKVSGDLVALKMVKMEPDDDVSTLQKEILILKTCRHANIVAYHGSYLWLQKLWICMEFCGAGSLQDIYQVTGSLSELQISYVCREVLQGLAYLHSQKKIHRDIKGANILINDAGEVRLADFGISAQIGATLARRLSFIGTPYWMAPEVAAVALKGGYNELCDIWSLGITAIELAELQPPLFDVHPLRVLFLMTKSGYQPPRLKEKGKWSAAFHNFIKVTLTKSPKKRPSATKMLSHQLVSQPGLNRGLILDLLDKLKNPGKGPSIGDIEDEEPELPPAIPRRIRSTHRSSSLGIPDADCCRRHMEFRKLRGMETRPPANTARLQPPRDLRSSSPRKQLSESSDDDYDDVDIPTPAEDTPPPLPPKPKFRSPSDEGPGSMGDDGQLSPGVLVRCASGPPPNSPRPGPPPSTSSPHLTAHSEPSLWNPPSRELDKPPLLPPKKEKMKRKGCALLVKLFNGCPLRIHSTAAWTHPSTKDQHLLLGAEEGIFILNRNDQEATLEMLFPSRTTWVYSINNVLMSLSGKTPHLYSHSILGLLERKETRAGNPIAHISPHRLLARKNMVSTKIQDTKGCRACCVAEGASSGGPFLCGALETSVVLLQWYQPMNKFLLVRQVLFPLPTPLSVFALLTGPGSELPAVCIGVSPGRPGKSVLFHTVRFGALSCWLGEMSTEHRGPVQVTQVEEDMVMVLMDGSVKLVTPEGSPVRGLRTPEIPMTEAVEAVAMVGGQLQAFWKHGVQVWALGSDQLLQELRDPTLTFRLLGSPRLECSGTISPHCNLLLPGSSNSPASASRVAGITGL
Chain of RIOK2 (human) (Q9BVS4 whole entry, looked up): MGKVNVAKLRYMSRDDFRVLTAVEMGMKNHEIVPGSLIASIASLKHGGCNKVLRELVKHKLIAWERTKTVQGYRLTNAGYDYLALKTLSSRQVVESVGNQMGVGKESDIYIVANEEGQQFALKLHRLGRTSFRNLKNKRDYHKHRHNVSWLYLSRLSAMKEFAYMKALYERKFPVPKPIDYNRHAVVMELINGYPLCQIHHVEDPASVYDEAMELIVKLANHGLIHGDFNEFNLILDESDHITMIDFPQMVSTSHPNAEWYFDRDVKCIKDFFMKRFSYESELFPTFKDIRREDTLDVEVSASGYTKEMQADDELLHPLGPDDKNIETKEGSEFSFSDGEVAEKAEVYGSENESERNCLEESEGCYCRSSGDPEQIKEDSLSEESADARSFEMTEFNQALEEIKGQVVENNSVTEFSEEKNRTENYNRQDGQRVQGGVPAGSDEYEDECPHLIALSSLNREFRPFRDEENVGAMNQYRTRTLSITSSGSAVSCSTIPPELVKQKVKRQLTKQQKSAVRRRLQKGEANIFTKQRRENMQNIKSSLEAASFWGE
Chain of CDK8 (human) (P49336 whole entry, looked up): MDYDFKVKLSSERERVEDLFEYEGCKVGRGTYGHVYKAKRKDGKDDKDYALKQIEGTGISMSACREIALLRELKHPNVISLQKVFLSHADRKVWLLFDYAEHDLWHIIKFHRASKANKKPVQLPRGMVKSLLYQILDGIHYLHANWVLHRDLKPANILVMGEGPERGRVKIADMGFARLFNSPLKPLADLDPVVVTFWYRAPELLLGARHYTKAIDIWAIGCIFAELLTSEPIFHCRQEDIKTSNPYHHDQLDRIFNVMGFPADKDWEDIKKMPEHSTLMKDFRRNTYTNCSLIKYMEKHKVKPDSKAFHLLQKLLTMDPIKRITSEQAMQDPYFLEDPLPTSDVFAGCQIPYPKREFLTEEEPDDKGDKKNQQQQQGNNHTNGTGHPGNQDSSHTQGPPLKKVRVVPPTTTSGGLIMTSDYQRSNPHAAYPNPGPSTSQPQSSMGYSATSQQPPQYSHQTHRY
Chain of NEK7 (human) (Q8TDX7 whole entry, looked up): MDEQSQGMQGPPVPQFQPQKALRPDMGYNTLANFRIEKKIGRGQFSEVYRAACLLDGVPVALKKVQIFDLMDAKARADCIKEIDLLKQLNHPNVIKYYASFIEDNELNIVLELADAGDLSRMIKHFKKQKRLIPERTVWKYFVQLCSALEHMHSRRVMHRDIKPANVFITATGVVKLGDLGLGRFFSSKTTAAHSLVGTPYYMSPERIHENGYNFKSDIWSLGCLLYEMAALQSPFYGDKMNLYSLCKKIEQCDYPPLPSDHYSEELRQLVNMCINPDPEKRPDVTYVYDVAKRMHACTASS
Chain of RIPK2 (human) (O43353 whole entry, looked up): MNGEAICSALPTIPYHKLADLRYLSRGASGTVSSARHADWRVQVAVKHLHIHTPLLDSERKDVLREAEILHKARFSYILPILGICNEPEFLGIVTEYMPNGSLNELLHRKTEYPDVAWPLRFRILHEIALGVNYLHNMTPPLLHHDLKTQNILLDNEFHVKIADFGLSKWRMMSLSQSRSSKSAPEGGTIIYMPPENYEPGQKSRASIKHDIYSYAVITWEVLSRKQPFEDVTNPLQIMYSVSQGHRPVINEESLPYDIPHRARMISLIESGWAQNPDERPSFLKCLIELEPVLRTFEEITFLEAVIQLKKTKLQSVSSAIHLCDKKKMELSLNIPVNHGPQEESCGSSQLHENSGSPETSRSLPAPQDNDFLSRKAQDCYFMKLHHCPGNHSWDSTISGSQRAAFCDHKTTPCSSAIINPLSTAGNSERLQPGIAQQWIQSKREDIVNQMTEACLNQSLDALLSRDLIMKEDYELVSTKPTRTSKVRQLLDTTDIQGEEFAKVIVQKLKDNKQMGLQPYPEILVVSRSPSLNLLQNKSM
Chain of DMPK (human) (Q09013 whole entry, looked up): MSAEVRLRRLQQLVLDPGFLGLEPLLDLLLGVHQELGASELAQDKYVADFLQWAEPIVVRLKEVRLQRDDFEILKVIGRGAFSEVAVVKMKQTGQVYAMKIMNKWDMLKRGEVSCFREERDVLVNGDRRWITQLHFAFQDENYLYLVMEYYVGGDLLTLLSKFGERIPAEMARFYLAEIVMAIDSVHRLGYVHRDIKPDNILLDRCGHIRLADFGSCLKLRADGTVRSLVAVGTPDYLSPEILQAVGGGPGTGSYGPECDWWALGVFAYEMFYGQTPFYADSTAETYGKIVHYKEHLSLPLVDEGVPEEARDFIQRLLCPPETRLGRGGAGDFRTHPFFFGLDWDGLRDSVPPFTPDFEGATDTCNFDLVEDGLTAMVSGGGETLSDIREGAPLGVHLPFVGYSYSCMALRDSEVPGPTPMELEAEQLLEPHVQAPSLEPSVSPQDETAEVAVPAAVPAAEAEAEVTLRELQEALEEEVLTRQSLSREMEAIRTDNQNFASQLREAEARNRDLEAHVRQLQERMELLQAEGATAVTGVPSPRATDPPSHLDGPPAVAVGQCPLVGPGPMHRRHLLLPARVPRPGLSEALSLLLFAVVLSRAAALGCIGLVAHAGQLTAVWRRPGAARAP
Chain of KIT (human), P10721 [D816V] (P10721 whole entry D816V, looked up): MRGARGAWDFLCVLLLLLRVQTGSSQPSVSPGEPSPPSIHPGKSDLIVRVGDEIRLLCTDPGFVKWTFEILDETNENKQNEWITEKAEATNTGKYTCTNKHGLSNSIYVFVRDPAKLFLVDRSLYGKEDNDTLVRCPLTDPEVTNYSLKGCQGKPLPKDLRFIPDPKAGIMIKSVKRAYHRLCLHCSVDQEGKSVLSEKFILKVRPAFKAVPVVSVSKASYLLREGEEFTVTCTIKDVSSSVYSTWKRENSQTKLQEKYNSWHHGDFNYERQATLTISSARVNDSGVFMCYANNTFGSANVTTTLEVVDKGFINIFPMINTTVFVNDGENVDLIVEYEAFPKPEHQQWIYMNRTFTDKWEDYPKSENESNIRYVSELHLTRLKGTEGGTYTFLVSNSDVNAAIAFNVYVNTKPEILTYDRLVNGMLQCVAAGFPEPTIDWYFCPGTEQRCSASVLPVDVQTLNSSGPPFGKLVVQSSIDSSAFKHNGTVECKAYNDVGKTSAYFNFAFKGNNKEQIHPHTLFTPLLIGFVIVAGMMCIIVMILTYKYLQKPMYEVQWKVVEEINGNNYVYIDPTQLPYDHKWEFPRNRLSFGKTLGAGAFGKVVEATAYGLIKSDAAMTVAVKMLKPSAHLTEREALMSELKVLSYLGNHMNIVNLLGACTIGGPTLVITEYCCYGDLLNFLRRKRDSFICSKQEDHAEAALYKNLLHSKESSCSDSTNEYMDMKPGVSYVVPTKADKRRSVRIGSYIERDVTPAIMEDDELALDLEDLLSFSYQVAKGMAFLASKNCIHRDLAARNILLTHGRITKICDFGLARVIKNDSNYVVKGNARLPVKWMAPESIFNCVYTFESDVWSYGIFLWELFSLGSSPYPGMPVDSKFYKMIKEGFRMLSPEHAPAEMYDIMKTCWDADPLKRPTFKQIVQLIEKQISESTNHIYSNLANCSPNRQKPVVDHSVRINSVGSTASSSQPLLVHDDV
Chain of DCLK1 (human) (O15075 whole entry, looked up): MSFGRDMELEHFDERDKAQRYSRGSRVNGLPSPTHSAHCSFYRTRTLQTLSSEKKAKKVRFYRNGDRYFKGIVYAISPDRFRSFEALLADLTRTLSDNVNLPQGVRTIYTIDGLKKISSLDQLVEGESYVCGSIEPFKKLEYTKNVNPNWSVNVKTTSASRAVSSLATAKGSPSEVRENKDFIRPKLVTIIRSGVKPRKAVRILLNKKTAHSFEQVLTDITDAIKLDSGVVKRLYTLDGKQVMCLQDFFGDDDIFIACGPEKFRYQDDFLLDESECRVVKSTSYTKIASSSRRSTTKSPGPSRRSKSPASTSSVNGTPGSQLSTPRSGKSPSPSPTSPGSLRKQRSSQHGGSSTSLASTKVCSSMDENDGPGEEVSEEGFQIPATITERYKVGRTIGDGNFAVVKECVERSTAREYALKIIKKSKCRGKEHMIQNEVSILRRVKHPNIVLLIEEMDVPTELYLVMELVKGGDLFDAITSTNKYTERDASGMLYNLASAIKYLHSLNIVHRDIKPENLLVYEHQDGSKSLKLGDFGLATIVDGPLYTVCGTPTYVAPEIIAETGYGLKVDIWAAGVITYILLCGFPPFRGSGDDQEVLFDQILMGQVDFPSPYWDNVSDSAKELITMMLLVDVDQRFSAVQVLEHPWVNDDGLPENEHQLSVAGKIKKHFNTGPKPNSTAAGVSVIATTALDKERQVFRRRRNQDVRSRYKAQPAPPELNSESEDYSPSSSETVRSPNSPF

CC[C@@H]1C(=O)N(C)c2cnc(Nc3ccc(C(=O)NC4CCN(C)CC4)cc3OC)nc2N1C1CCCC1
kinase still bound, per cent of control (ACVR2B (human)): 100% | kinase still bound, per cent of control [1]: 100% | kinase still bound, per cent of control (MLTK (human)): 100% | kinase still bound, per cent of control (IGF1R (human)): 100% | kinase still bound, per cent of control (RAF1 (human)): 100% | kinase still bound, per cent of control (STK24 (human)): 100% | kinase still bound, per cent of control (STK4 (human)): 100% | kinase still bound, per cent of control (PIK3C2B (human)): 100% | kinase still bound, per cent of control (RIPK2 (human)): 100% | kinase still bound, per cent of control (MAP4K1 (human)): 100% | kinase still bound, per cent of control (PAK4 (human)): 100% | kinase still bound, per cent of control (RPS6KA4 KD1 (human)): 100% | kinase still bound, per cent of control (PIK3CB (human)): 100% | kinase still bound, per cent of control (MARK3 (human)): 100% | kinase still bound, per cent of control (MAP2K6 (human)): 100% | kinase still bound, per cent of control (PLK4 (human)): 100% | kinase still bound, per cent of control (PAK6 (human)): 100% | kinase still bound, per cent of control (FER (human)): 100% | kinase still bound, per cent of control (STK17B (human)): 100% | kinase still bound, per cent of control (FGFR1 (human)): 100% | kinase still bound, per cent of control [2]: 100% | kinase still bound, per cent of control (TYRO3 (human)): 100% | kinase still bound, per cent of control (EPHA6 (human)): 100% | kinase still bound, per cent of control (TXK (human)): 100% | kinase still bound, per cent of control (RIOK2 (human)): 100% | kinase still bound, per cent of control (EPHA4 (human)): 100% | kinase still bound, per cent of control (DMPK (human)): 100% | kinase still bound, per cent of control (ACVR1 (human)): 100% | kinase still bound, per cent of control (NEK7 (human)): 100% | kinase still bound, per cent of control (CDK8 (human)): 100% | kinase still bound, per cent of control (DCLK1 (human)): 5.4%

C=CC(=O)Nc1cccc(Oc2nc(Nc3ccc(N4CCN(C)CC4)cc3OC)ncc2Cl)c1
kinase still bound, per cent of control (ACVR2B (human)): 100% | kinase still bound, per cent of control [1]: 100% | kinase still bound, per cent of control (MLTK (human)): 100% | kinase still bound, per cent of control (IGF1R (human)): 7.4% | kinase still bound, per cent of control (RAF1 (human)): 100% | kinase still bound, per cent of control (STK24 (human)): 100% | kinase still bound, per cent of control (STK4 (human)): 100% | kinase still bound, per cent of control (PIK3C2B (human)): 100% | kinase still bound, per cent of control (RIPK2 (human)): 100% | kinase still bound, per cent of control (MAP4K1 (human)): 34% | kinase still bound, per cent of control (PAK4 (human)): 100% | kinase still bound, per cent of control (RPS6KA4 KD1 (human)): 100% | kinase still bound, per cent of control (PIK3CB (human)): 100% | kinase still bound, per cent of control (MARK3 (human)): 7.8% | kinase still bound, per cent of control (MAP2K6 (human)): 100% | kinase still bound, per cent of control (PLK4 (human)): 0.2% | kinase still bound, per cent of control (MYLK3 (human)): 100% | kinase still bound, per cent of control (PAK6 (human)): 100% | kinase still bound, per cent of control (FER (human)): 11% | kinase still bound, per cent of control (STK17B (human)): 100% | kinase still bound, per cent of control (FGFR1 (human)): 10% | kinase still bound, per cent of control [2]: 13% | kinase still bound, per cent of control (TYRO3 (human)): 100% | kinase still bound, per cent of control (EPHA6 (human)): 100% | kinase still bound, per cent of control (TXK (human)): 16% | kinase still bound, per cent of control (RIOK2 (human)): 12% | kinase still bound, per cent of control (EPHA4 (human)): 100% | kinase still bound, per cent of control (DMPK (human)): 17% | kinase still bound, per cent of control (ACVR1 (human)): 100% | kinase still bound, per cent of control (NEK7 (human)): 12% | kinase still bound, per cent of control (CDK8 (human)): 100% | kinase still bound, per cent of control (DCLK1 (human)): 1%

COc1cc(C(=O)NC2CCN(C)CC2)ccc1Nc1ncc2c(n1)N(C1CCCC1)C(C)CC(=O)N2C (configuration not stated)
kinase still bound, per cent of control (ACVR2B (human)): 100% | kinase still bound, per cent of control [1]: 100% | kinase still bound, per cent of control (MLTK (human)): 100% | kinase still bound, per cent of control (IGF1R (human)): 32% | kinase still bound, per cent of control (RAF1 (human)): 100% | kinase still bound, per cent of control (STK24 (human)): 100% | kinase still bound, per cent of control (STK4 (human)): 100% | kinase still bound, per cent of control (PIK3C2B (human)): 100% | kinase still bound, per cent of control (RIPK2 (human)): 100% | kinase still bound, per cent of control (MAP4K1 (human)): 100% | kinase still bound, per cent of control (PAK4 (human)): 100% | kinase still bound, per cent of control (RPS6KA4 KD1 (human)): 100% | kinase still bound, per cent of control (PIK3CB (human)): 100% | kinase still bound, per cent of control (MARK3 (human)): 100% | kinase still bound, per cent of control (MAP2K6 (human)): 100% | kinase still bound, per cent of control (PLK4 (human)): 100% | kinase still bound, per cent of control (MYLK3 (human)): 100% | kinase still bound, per cent of control (PAK6 (human)): 100% | kinase still bound, per cent of control (FER (human)): 31% | kinase still bound, per cent of control (STK17B (human)): 100% | kinase still bound, per cent of control (FGFR1 (human)): 100% | kinase still bound, per cent of control [2]: 100% | kinase still bound, per cent of control (TYRO3 (human)): 100% | kinase still bound, per cent of control (EPHA6 (human)): 100% | kinase still bound, per cent of control (TXK (human)): 100% | kinase still bound, per cent of control (RIOK2 (human)): 100% | kinase still bound, per cent of control (EPHA4 (human)): 100% | kinase still bound, per cent of control (DMPK (human)): 100% | kinase still bound, per cent of control (ACVR1 (human)): 100% | kinase still bound, per cent of control (NEK7 (human)): 100% | kinase still bound, per cent of control (CDK8 (human)): 100% | kinase still bound, per cent of control (DCLK1 (human)): 4%

Cc1ccc(C(=O)Nc2cccc(C(F)(F)F)c2)cc1Nc1cncc(C(N)=O)c1
kinase still bound, per cent of control (ACVR2B (human)): 100% | kinase still bound, per cent of control [1]: 100% | kinase still bound, per cent of control (MLTK (human)): 6.9% | kinase still bound, per cent of control (IGF1R (human)): 100% | kinase still bound, per cent of control (RAF1 (human)): 4.5% | kinase still bound, per cent of control (STK24 (human)): 100% | kinase still bound, per cent of control (STK4 (human)): 100% | kinase still bound, per cent of control (PIK3C2B (human)): 100% | kinase still bound, per cent of control (RIPK2 (human)): 100% | kinase still bound, per cent of control (MAP4K1 (human)): 100% | kinase still bound, per cent of control (PAK4 (human)): 100% | kinase still bound, per cent of control (RPS6KA4 KD1 (human)): 100% | kinase still bound, per cent of control (PIK3CB (human)): 100% | kinase still bound, per cent of control (MARK3 (human)): 100% | kinase still bound, per cent of control (MAP2K6 (human)): 100% | kinase still bound, per cent of control (PLK4 (human)): 100% | kinase still bound, per cent of control (MYLK3 (human)): 100% | kinase still bound, per cent of control (PAK6 (human)): 100% | kinase still bound, per cent of control (FER (human)): 100% | kinase still bound, per cent of control (STK17B (human)): 100% | kinase still bound, per cent of control (FGFR1 (human)): 100% | kinase still bound, per cent of control [2]: 100% | kinase still bound, per cent of control (TYRO3 (human)): 100% | kinase still bound, per cent of control (EPHA6 (human)): 100% | kinase still bound, per cent of control (TXK (human)): 100% | kinase still bound, per cent of control (RIOK2 (human)): 100% | kinase still bound, per cent of control (EPHA4 (human)): 6.8% | kinase still bound, per cent of control (DMPK (human)): 100% | kinase still bound, per cent of control (ACVR1 (human)): 100% | kinase still bound, per cent of control (NEK7 (human)): 100% | kinase still bound, per cent of control (CDK8 (human)): 100% | kinase still bound, per cent of control (DCLK1 (human)): 100%
